Two compounds from patent EP3785696A1, “COSMETIC USE OF AROMATIC FORMAMIDINE DERIVATIVES” (B.R.A.I.N. Biotechnology Research And Information Network AG, priority 2019, dated 2021) can be followed below.

Format in all cases: cell-based
In one assay the target is T1, MC5-R (Homo sapiens, UniProt P33032).
T1 construct: MC5-R cDNA expression results in MC5-R protein NP_005904.1; expressed in transfected cells; host or cells: HEK293/Gα15 cells
The assay is described as follows: Determination of compound activity on MC5-R (antagonist testing, Fluo-4 Ca2+ fluorescence in HEK293/Gα15 cells). As to conditions: Figure 2; 25 µM, added 10 min prior stimulation with αMSH (EC80). From the text:
HEK293 cells stably expressing the target receptor MC5-R and the promiscuous murine Gα15 protein were established on the basis of the above-mentioned HEK293/Gα15 cell line. These cells were further transfected with an expression vector comprising the human MC5-receptor cDNA. MC5-R cDNA expression results in MC5-R protein NP_005904.1.
Stimulation of MC5-R with αMSH increases intracellular Ca^2+-concentration, inhibition of MC5-R decreases these αMSH induced Ca^2+-responses. Changes in intracellular Ca^2+-levels were measured via the Ca^2+-sensitive fluorescent dye Fluo-4 in a fluorescent plate reader.
(§1) For antagonist-testing, test compound was added to cells with a final concentration of 25 µM 10 min prior stimulation with αMSH (using EC80). The threshold for antagonistic activity was defined as 70% of the positive control αMSH (the EC80 value is set as 100%), and the assay was accepted as valid if the standard deviation of the αMSH signal is 10% or less.

Another assay has as its target T2, MC1-R (Homo sapiens, UniProt Q01726, A105V).
T2 construct: MC1-R cDNA expression results in the corresponding protein (NP_002377.4); expressed in transfected cells
T2 sequence (Q01726 1-317 A105V): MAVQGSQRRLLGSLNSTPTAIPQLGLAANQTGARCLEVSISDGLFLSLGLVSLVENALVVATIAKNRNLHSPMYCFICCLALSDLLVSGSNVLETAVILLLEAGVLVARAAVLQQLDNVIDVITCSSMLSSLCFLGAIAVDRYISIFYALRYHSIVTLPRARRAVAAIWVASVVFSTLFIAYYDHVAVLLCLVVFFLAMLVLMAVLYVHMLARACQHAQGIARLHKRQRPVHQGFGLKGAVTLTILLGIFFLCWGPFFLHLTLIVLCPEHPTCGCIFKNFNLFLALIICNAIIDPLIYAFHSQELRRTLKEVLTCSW
The assay is described as follows: Determination of compound activity on MC1-R (antagonist testing, Fluo-4 Ca2+ fluorescence in HEK293/Gα15/MC1-R cells). As to conditions: 25 µM. From the text:
A MC1-R expressing cell line for assessing melanogenesis modulating activity was established based on engineered HEK 293 cells, stably expressing the murine G-protein Gα15 (NM_010304.3). The promiscuous Gα15 protein couples to MC1-R and therefore links receptor stimulation to Ca^2+-signaling.
To achieve a stable expression of the target receptor this HEK293/Gα15 cell line was further stably transfected with an expression vector for the human MC1-R receptor. MC1-R cDNA expression results in the corresponding protein (NP_002377.4 with an amino acid replacement at position 105 (A105V)).
HEK293 cells stably expressing the target receptor MC1-R and the promiscuous murine Gα15 protein (HEK293/Gα15/MC1-R) were established as described above. […] Changes in internal Ca^2+-concentration are measured via the Ca^2+-sensitive fluorescent dye Fluo-4 (2-{[2-(2-{5-[bis(carboxymethyl)amino]-2-methyl-phenoxy}ethoxy)-4-(2,7-difluoro-6-hydroxy-3-oxo-3H-xanthen-9-yl)phenyl](carboxymethyl)amino}acetic acid) in a fluorescence plate reader (FLEX-Station, Molecular Devices) at an excitation wavelength of 488nm and emission of 535nm.
Recombinant HEK293/Gα15/MC1-R cells were cultured in DMEM with 10% FBS, 2mM glutamine, 1,3 mg/ml geneticin and 5 µg/ml blasticidin. Cells were seeded in 96 well, poly-D-lysine coated, black well/ clear bottom fluorescence plates in medium without antibiotics. […]

The test system of assay [1] is MelanoDerm™ (Mattek Corp.) tissues. The assay is described as follows: MelanoDerm™ assay: melanin content in reconstructed skin tissues. As to conditions: 336 h, 14 days of treatment, melanin content normalized on protein content, read-out: % inhibition relative to negative control. As for the experimental part:
Phenotypic skin lightening was assessed in reconstructed skin using MelanoDerm™ (Mattek Corp.) tissues (Figure 1).
Controls were: negative control (ultrapure water) and positive control (10 µM Ketoconazol). Test compounds were prepared in DMSO with a concentration of 10 mM and diluted in EPI-100-LLM medium (Mattek Corp.) to a final concentration of 25 µM.
MelanoDerm™ tissues were equilibrated in pre-warmed EPI-100-LLMM medium (6-Well plates, 5 ml per well) for 1 h (37°C, 5 % CO2) before treatment. Test compounds were applied systemically by addition into the culture medium. […] At the end of the treatment, tissues were analyzed via macroscopic/microscopic images and in vitro assay, for viability and for melanin content. […] Cytotoxicity was assessed using microscopic tissue images (10× magnification). Tissue viability as a result of test compound relative to negative control was determined using Cell Proliferation Reagent WST-1 (cat# 05015944001, Roche). For melanin quantitation tissues were submerged for 5 min in phosphate buffered saline (PBS, 5 ml), removed from PBS and rinsed with additional 2 ml PBS. […] All incubated samples were centrifuged at 13,000 rpm for 5 min and the optical density of the supernatant (200 µl) was measured at 490 nm. The amount of melanin (µg) from each tissue sample was determined using the melanin standard samples calibration curve. […]

A further assay addresses T3, MC3-R (Homo sapiens, UniProt P41968).
T3 construct: MC3-R cDNA expression results in MC3-R protein NP_063941.3; expressed in transfected cells; host or cells: HEK293/Gα15 cells
The assay is described as follows: Determination of compound activity on MC3-R (antagonist testing, Fluo-4 Ca2+ fluorescence in HEK293/Gα15 cells). As to conditions: Figure 2; 25 µM, added 10 min prior stimulation with αMSH (EC80).
Excerpt: HEK293 cells stably expressing the target receptor MC3-R and the promiscuous murine Gα15 protein were established on basis of the above-mentioned HEK293/Gα15 cell line. These cells were further transfected with an expression vector comprising the human MC3-receptor cDNA. MC3-R cDNA expression results in MC3-R protein NP_063941.3.
Stimulation of MC3-R with αMSH increases intracellular Ca^2+-concentration, inhibition of MC3-R decreases these αMSH induced Ca^2+-responses. Changes in intracellular Ca^2+-levels were measured via the Ca^2+-sensitive fluorescent dye Fluo-4 in a fluorescent plate reader.
as §1

A further assay deals with T4, MC4-R (Homo sapiens, UniProt P32245).
T4 construct: MC4-R cDNA expression results in MC4-R protein NP_005903.2; expressed in transfected cells; host or cells: HEK293/Gα15 cells
The assay is described as follows: Determination of compound activity on MC4-R (antagonist testing, Fluo-4 Ca2+ fluorescence in HEK293/Gα15 cells). As to conditions: Figure 2; 25 µM, added 10 min prior stimulation with αMSH (EC80).
Excerpt: HEK293 cells stably expressing the target receptor MC4-R and the promiscuous murine Gα15 protein were established on basis of the above-mentioned HEK293/Gα15 cell line. These cells were further transfected with an expression vector comprising the human MC4-receptor cDNA. MC4-R cDNA expression results in MC4-R protein NP_005903.2.
Stimulation of MC4-R with αMSH increases intracellular Ca^2+-concentration, inhibition of MC4-R decreases these αMSH induced Ca^2+-responses. Changes in intracellular Ca^2+-levels were measured via the Ca^2+-sensitive fluorescent dye Fluo-4 in a fluorescent plate reader.
as §1

A further assay addresses T5, MC2-R (Homo sapiens, UniProt Q01718).
T5 construct: MC2-R cDNA expression results in MC2-R protein NP_000520.1; expressed in transfected cells; host or cells: HEK293/Gα15 cells
The assay is described as follows: Determination of compound activity on MC2-R (antagonist testing, Fluo-4 Ca2+ fluorescence in HEK293/Gα15 cells with MC2-R and MRAP). As to conditions: Figure 2; 25 µM, added 10 min prior addition of ACTH (EC80). From the text:
HEK293 cells stably expressing the target receptor MC2-R, the accessory protein MRAP and the promiscuous murine Gα15 protein were established on basis of the above-mentioned HEK293/Gα15 cell line. These cells were further transfected with an expression vector comprising human MC2-receptor and additional MRAP (MC2-Receptor Accessory Protein) cDNA. MC2-R cDNA expression results in MC2-R protein NP_000520.1, MRAP cDNA expression results in MRAP protein NP_848932.1.
Stimulation of MC2-R with ACTH (adrenocorticotropic hormone) increases intracellular Ca^2+-concentration, inhibition of MC2-R decreases these ACTH induced Ca^2+-responses. Changes in intracellular Ca^2+-levels were measured via the Ca^2+-sensitive fluorescent dye Fluo-4 in a fluorescent plate reader.
For antagonist-testing, test compound was added to cells with a final concentration of 25 µM 10 min prior addition of ACTH (EC80). The threshold for antagonistic activity was defined in this experiment as 70% of the positive control ACTH (the EC80 value is set as 100%), and the assay was accepted as valid if the standard deviation of the ACTH signal is 10% or less.

T1 sequence (P33032 whole entry): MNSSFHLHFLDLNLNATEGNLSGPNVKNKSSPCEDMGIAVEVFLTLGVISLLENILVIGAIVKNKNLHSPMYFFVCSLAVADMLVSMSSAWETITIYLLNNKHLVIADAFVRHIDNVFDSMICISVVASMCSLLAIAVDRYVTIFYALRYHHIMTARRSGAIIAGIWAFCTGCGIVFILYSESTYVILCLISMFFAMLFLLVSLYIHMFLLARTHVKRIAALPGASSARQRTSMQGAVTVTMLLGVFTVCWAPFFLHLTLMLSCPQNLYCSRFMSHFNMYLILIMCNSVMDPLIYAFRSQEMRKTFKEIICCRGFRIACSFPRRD
T4 sequence (P32245 whole entry): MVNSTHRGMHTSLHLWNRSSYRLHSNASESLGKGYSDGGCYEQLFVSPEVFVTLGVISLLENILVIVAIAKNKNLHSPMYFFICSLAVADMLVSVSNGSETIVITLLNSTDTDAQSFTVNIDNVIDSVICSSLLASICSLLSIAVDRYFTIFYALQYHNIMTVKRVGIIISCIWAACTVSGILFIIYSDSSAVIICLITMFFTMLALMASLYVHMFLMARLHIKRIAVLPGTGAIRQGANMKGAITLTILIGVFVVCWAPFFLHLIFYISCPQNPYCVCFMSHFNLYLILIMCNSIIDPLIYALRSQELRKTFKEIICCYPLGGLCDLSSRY
T3 sequence (P41968 whole entry): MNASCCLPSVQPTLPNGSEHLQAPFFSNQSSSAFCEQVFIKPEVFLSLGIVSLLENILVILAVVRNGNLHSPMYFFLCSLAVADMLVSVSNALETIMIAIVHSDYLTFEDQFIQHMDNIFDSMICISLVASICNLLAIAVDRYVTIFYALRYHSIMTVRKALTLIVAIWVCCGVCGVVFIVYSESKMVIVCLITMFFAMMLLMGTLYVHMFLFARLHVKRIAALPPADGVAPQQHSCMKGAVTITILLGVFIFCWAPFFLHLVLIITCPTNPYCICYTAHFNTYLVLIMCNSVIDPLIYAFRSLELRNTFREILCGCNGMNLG
T5 sequence (Q01718 whole entry): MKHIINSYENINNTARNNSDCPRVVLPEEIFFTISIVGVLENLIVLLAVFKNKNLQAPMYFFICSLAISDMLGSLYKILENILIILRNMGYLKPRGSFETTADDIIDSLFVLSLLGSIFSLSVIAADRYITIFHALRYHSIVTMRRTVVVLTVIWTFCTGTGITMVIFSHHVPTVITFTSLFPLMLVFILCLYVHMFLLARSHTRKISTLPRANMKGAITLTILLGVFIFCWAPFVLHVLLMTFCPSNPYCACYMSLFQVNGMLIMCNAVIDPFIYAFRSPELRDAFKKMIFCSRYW
T5 sequence (Q8TCY5 whole entry partner): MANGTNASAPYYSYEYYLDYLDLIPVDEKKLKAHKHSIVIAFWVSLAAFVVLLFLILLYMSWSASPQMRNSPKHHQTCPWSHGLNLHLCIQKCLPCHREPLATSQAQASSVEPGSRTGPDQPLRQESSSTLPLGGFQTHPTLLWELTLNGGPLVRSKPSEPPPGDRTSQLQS

On to `COc1ccc(CSC(=N)N)cc1Br` [Compound (III)], for which the “activity of MC5R” value at MC5-R is listed as “not significantly affected”. Moreover, the “reduce MC1R activation by” value on MC1-R (added 10 min prior stimulation with αMSH (EC80 set as 100%)) is on record as 51,3%. Further, the “reduce MC1R activation to” value on MC1-R (Figure 2, αMSH (EC80) signal set as 100%, remaining activation) is “about 50%”. The inhibition at 25 µM in assay [1] (25 µM in culture medium) was -53.4%. Besides, the “activity of MC3R” value on MC3-R was “not significantly affected”. In addition, the “activity of MC4R” value at MC4-R is reported as “not significantly affected”. For the same compound, the “activity of MC2R” value at MC2-R is “not significantly affected”.

As for `CC(=O)N1CCN(c2ccc(OCC3COC(Cn4ccnc4)(c4ccc(Cl)cc4Cl)O3)cc2)CC1` (centres unmarked) [Ketoconazol, reference compound], the inhibition at 10 µM in assay [1] (10 µM in culture medium) is -70.9%.

What is called inhibition is the relative decrease from the control value, in per cent.
